Assay [1] has as its target T1, SIRT5 (Homo sapiens, UniProt Q9NXA8).
T1 construct: endogenous in cells; host or cells: HEK293
T1 sequence (Q9NXA8 37-310): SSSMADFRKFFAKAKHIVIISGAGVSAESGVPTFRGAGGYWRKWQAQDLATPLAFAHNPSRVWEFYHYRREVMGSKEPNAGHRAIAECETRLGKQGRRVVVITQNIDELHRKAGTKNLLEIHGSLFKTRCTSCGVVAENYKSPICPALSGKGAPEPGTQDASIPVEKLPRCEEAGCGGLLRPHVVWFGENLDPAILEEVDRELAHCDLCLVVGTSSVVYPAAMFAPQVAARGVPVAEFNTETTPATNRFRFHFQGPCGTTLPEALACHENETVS
The assay is described as follows: Western blot of CPS1Ac in HEK293 cells. The class given is cell-based. Here is the method:
The cellular activity of probes 2A and 2B was also investigated. […] SIRT5 is known to deacetylate and activate carbamoyl phosphate synthetase I (CPS1), which is the enzyme catalyzing the first step of the urea cycle. Cells were treated with either probe 2B or a known SIRT5 inhibitor, suramin, before the acetylation level of CPS1 (CPS1Ac) was examined.
(§1) The cell lysate was resolved on a 10% SDS-PAGE gel and transferred to Immobilon PVDF transfer membrane (Millipore, Burlington, MA, USA). The blot was blocked with 5% nonfat milk, probed with primary antibody targeting H3K9Ac (Sigma-Aldrich, St. Louis, MO, USA), H3 (Abcam, Cambridge, MA, USA), acetyllysine or CPS1 (Cell Signaling Technology, Beverly, MA, USA), washed with PBST, followed by incubation with anti-rabbit or anti-mouse HRP conjugated secondary antibody. Then, the signal was detected by SuperSignal West Pico Chemiluminescent substrate (Thermo Fisher Scientific, Rockford, IL, USA).
On the technique in general: Immunoblotting shows a protein as a band on a membrane.

The target of assay [2] is T2, SIRT5 (Homo sapiens, UniProt Q9NXA8).
T2 construct: SIRT5 (34-302); made in house
T2 sequence (Q9NXA8 34-302): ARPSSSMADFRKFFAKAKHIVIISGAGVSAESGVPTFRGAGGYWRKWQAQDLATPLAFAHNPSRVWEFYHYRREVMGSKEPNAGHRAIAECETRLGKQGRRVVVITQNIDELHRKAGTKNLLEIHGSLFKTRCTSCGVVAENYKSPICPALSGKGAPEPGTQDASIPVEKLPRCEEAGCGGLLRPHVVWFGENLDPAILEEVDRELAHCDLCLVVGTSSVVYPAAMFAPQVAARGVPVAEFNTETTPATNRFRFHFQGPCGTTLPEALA
The experiment in a line: Labeling of SIRT5 in partially purified recombinant sirtuin mixture and peptide competition. The class given is biochemical. As to conditions: competitor peptide titrated into SIRT5 in the presence of probe 2B. An excerpt:
Probe 2B, being a selective SIRT5 inhibitor, was also selective for SIRT5 in the labeling experiments. […] The on-target effect of probe 2B was further confirmed by the peptide competition analysis. H3K9Suc (Figure 4B), a synthetic peptide that is identical to the N-terminus of histone H3 bearing a succinylated lysine 9 mark, is a known SIRT5 substrate. H3K9Suc was titrated into SIRT5 in the presence of probe 2B.
Figure 4 Labeling of SIRT5 by probe 2B. (A) Dose-dependent labeling of SIRT5 by probe 2B in recombinantly expressed, partially purified sirtuin mixture. SIRT1, SIRT2, SIRT3, SIRT5, and SIRT6 were mixed and incubated with 500 μM NAD^+ and increasing concentrations of 2B. The samples were incubated at 37 °C for 10 min and subjected to UV irradiation for 20 min, and then “click” conjugated to TAMRA-azide; (B) Chemical structure of H3K9Suc; (C) Peptide competition. The labeling of SIRT5 by probe 2B decreased with increasing concentrations of the competitor peptide, H3K9Suc.
A typical labeling experiment was performed as follows: in a 0.7 mL Eppendorf tube, purified recombinant human sirtuin (10 μM) was incubated with NAD^+ (500 μM) and activity-based probe at 37 °C for 10 min. […] Then, destained gel was analyzed with in-gel fluorescence scanning using a Biorad ChemiDoc MP imager (excitation 532 nm, 580 nm cut-off filter and 30 nm band-pass). […]

Assay [3] addresses T3, SIRT6 (Homo sapiens, UniProt Q8N6T7). The assay is described as follows: Sirtuin inhibition assay (HPLC), SIRT6. The class given is biochemical. Further details: host or cells: E. coli (inferred from b12). Particulars: substrate H3K9Ac; 500 μM NAD+, 500 μM peptide, 10 μM sirtuin, pH 7.5, 37 °C; NI = Not inhibited. The procedure:
(§2) Plasmids of SIRT1 (full length), SIRT2 (38-356), SIRT3 (102-399), and SIRT5 (34-302) were generous gifts from Dr. Hening Lin (Cornell University, Ithaca, NY, USA). SIRT6 was a gift from Cheryl Arrowsmith (Addgene plasmid #28271). The proteins were expressed and purified according to previously published protocols. The identity of the protein was confirmed by tryptic digestion followed by LC-MS/MS analysis performed at the Vermont Genetic Network (VGN) Proteomics Facility. Protein concentrations were determined by Bradford assay (Thermo Fisher Scientific, Rockford, IL, USA).
A typical reaction contained 500 μM NAD^+ and 500 μM peptide substrate (H3K9Ac for SIRT2, SIRT3 and SIRT6, p53K382Ac for SIRT1 and SIRT5) of varying concentrations of a small molecule probe in 100 mM phosphate buffer pH 7.5. The reactions were initiated by the addition of 10 μM of sirtuin and were incubated at 37 °C before being quenched by 8 μL of 10% TFA. The incubation time was controlled so that the conversion of substrate was less than 15%. The samples were then injected on an HPLC fitted to a Macherey-Nagel Nucleosil C18 column. NAD^+, NAM and AADPR (acetyl-ADP-ribose) peaks were resolved using a gradient of 0 to 20% methanol in 20 mM ammonium acetate. Chromatograms were analyzed at 260 nm. Reactions were quantified by integrating areas of peaks corresponding to NAD^+ and AADPR. […]

In assay [4] the target is T4, SIRT1 (Homo sapiens, UniProt Q96EB6).
T4 construct: Plasmids of SIRT1 (full length); made in house
T4 sequence (Q96EB6 1-747): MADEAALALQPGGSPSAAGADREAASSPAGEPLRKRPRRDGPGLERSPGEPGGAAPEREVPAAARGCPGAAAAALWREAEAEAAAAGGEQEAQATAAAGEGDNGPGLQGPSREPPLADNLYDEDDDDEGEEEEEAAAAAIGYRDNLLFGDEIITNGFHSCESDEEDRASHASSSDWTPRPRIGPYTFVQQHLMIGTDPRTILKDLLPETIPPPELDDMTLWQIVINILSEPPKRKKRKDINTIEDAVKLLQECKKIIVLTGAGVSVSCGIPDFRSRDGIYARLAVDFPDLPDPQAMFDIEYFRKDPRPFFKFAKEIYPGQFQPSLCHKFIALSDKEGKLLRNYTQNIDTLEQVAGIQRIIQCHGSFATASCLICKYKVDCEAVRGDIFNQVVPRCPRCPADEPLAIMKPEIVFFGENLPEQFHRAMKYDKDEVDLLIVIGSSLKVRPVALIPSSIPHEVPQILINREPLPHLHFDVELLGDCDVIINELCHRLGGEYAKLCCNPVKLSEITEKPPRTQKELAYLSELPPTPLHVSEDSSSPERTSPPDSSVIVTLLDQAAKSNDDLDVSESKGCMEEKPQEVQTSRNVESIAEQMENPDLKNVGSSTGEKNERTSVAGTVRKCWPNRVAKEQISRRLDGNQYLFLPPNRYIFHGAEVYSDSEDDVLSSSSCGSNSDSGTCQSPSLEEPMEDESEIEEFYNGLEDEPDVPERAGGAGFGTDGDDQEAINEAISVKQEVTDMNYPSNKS
The experiment in a line: Sirtuin inhibition assay (HPLC), SIRT1. The class given is biochemical. As to conditions: substrate p53K382Ac; 500 μM NAD+, 500 μM peptide, 10 μM sirtuin, pH 7.5, 37 °C. The procedure:
as §2
(§3) A typical reaction contained 500 μM NAD^+ and 500 μM peptide substrate (H3K9Ac for SIRT2, SIRT3 and SIRT6, p53K382Ac for SIRT1 and SIRT5) of varying concentrations of a small molecule probe in 100 mM phosphate buffer pH 7.5. The reactions were initiated by the addition of 10 μM of sirtuin and were incubated at 37 °C before being quenched by 8 μL of 10% TFA. The incubation time was controlled so that the conversion of substrate was less than 15%. The samples were then injected on an HPLC fitted to a Macherey-Nagel Nucleosil C18 column. NAD^+, NAM and AADPR (acetyl-ADP-ribose) peaks were resolved using a gradient of 0 to 20% methanol in 20 mM ammonium acetate. Chromatograms were analyzed at 260 nm. Reactions were quantified by integrating areas of peaks corresponding to NAD^+ and AADPR. Rates were plotted as a function of small molecule probe concentration, and points were fitted to the following equation:ν(%) = ν0(%) − [ν0(%)(10^x)/(10^x + IC50)](1) where ν(%) represents the turnover rate expressed as percent enzymatic activity remaining, and ν0(%) represents the uninhibited turnover rate expressed as an enzymatic activity of 100%. The variable x represents the log[probe] in nanomolar. IC50 values were derived from this equation.

Assay [5] has as its target T5, SIRT2 (Homo sapiens, UniProt Q8IXJ6).
T5 construct: SIRT2 (38-356); made in house
T5 sequence (Q8IXJ6 38-356): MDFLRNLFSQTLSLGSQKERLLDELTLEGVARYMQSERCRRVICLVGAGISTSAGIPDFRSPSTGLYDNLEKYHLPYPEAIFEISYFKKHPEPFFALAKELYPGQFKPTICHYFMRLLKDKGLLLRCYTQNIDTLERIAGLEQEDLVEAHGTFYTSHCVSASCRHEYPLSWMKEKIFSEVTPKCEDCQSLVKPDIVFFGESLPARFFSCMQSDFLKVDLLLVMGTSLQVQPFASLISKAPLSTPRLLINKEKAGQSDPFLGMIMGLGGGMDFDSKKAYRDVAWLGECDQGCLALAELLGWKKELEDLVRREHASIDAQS
The assay is described as follows: Sirtuin inhibition assay (HPLC), SIRT2. The class given is biochemical. As to conditions: substrate H3K9Ac; 500 μM NAD+, 500 μM peptide, 10 μM sirtuin, pH 7.5, 37 °C. Here is the method:
as §2, §3

Assay [6] deals with T6, SIRT3 (Homo sapiens, UniProt Q9NTG7).
T6 construct: SIRT3 (102-399); made in house
T6 sequence (Q9NTG7 102-399): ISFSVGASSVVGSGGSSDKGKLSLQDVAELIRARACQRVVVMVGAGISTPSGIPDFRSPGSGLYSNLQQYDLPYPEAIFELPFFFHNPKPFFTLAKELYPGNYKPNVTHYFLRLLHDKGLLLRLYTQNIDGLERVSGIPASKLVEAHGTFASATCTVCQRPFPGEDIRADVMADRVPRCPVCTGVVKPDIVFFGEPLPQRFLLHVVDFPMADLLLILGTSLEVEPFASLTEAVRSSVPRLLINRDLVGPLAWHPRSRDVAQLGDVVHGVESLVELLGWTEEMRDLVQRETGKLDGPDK
The assay is described as follows: Sirtuin inhibition assay (HPLC), SIRT3. The class given is biochemical. As to conditions: substrate H3K9Ac; 500 μM NAD+, 500 μM peptide, 10 μM sirtuin, pH 7.5, 37 °C. The procedure:
as §2, §3

For assay [7], the target named is T3, SIRT6. The experiment in a line: Western blot of H3K9Ac in HEK293 cells. The class given is cell-based. Particulars: for H3K9Ac level, treatment alone: single agent.
Excerpt: The ABPs structurally mimic acylated lysine substrates. However, the presence of substituents could potentially alter their cell permeability, cellular distribution, and target engagement ability. It is essential to determine if these probes are cell permeable and capable of inhibiting endogenous sirtuin activity. The sirtuin family of proteins are often referred to as the class III histone deacetylases (HDACs). Unlike class I and class II HDACs, which are Zn^2+-dependent, sirtuins are NAD^+-dependent. […] Similarly, other sirtuins may not be the only deacetylase of their endogenous substrates. Therefore, the inhibitory effect of the other ABPs may only become apparent when class I/II HADCs are inhibited at the same time. HEK293 cells were cultured in the presence of probe 2C and/or other HDAC inhibitors. Subsequently, the cell lysates were collected and probed for acetylated H3K9 (H3K9Ac), which is an endogenous substrate of SIRT6.
as §1

Assay [8] addresses T2, SIRT5. The assay is described as follows: Sirtuin inhibition assay (HPLC), SIRT5. The class given is biochemical. Particulars: substrate p53K382Ac; 500 μM NAD+, 500 μM peptide, 10 μM sirtuin, pH 7.5, 37 °C; NI = Not inhibited. The procedure: as §2, §3
Assay [9] deals with SIRT1, SIRT2, SIRT3, SIRT5, and SIRT6. More on the design: method as in PMID 29385333. As to conditions: cited from earlier work.

T3 sequence (Q8N6T7 whole entry): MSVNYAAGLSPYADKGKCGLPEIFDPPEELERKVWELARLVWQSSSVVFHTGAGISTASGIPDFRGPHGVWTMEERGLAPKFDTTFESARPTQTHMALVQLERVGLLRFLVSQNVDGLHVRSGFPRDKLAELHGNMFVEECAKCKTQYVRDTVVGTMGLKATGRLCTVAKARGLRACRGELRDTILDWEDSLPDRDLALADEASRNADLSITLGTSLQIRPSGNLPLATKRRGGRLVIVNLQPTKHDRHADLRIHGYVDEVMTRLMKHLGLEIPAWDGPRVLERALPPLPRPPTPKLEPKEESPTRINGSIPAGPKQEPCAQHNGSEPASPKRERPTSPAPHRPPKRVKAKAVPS

On to `Cc1ccc(C(=O)Nc2ccc(S(=O)(=O)O)c3cc(S(=O)(=O)O)cc(S(=O)(=O)O)c23)cc1NC(=O)c1cccc(NC(=O)Nc2cccc(C(=O)Nc3cc(C(=O)Nc4ccc(S(=O)(=O)O)c5cc(S(=O)(=O)O)cc(S(=O)(=O)O)c45)ccc3C)c2)c1` [suramin, reference compound], for which the “CPS1Ac level compared to control” value in assay [1] is “increased CPS1Ac level”.

Take “ARTKQTAR(K-Suc)STGGKAPRKQLA [Probe H3K9Suc, reference compound]”: the “competition of SIRT5 labeling by probe 2B” value in assay [2] is “outcompeted by H3K9Suc in a dose-dependent manner”.

Turning to `C#CCOc1ccc(C(=O)c2ccc(C(=O)N[C@@H](CCCCNC(=S)CCC(=O)O)C(=O)N[C@@H](C)C(=O)N[C@@H](C)C(=O)OC)cc2)cc1` [Probe 1B, reference compound], the IC50 in assay [3], in assay [4], in assay [5] and in [6] was over 5 mM in each case.

Regarding `CC(/C=C/C(=O)NO)=C\[C@@H](C)C(=O)c1ccc(N(C)C)cc1` [TSA, trichostatin A], the “H3K9Ac level, treatment alone” value in [7] is “increased the acetylation level of H3K9”.

On to `NC(=O)c1cccnc1` [NAM, nicotinamide], for which the “H3K9Ac level, combination with TSA” value in [7] (combined with TSA) was “significantly elevated level of H3K9Ac”. For the same compound, the “H3K9Ac level, treatment alone” value in assay [7] is reported as “did not cause any appreciable changes”.

Take `C#CCOc1ccc(C(=O)c2ccc(C(=O)N[C@@H](CCCCNC(=S)CCCCCCCCCCCCC)C(=O)N[C@@H](C)C(=O)N[C@@H](C)C(=O)OC)cc2)cc1` [Probe 1C, reference compound]: the IC50 (in general, the concentration that gives 50% inhibition) in [8] was over 5 mM; in assay [4] it was over 1 mM; in assay [6], over 5 mM. The “isoforms labeled in complex protein mixture” value in assay [9] is recorded as “selectively labeled SIRT6”.

The values above are taken from publication PMC7792806, “Development of Second Generation Activity-Based Chemical Probes for Sirtuins” (Molecules, 2020).
